Experimental data as given in PubChem BioAssay AID268 (DTP/NCI, 2004).
Several values for one entry are separate records, joined by “and”; a condition that tells them apart may be missing. Equal values may be shown once.

System: CD2F1 mice, P1798 lymphosarcoma sc, tumor weight T/C
Assay: NCI In Vivo Anticancer Drug Screen. Data for tumor model P1798 Lymphosarcoma (subcutaneous) in CD2F1 (CDF1) mice
Details: endpoint: mean tumor weight, higher = larger tumour
Method: The antitumor activity of compounds was measured in mice bearing transplantable tumors. Survival or tumor size were measured and the results are expressed as the measurement made in the treated group (T) divided by the measurement made in the vehicle treated control group (C). The tumor model used in this assay is P1798 Lymphosarcoma (subcutaneous) in CD2F1 (CDF1) mice

[1] = dose: 5.0 mg/kg/injection, schedule: Q01DX010 (ip), vehicle: saline
[2] = dose: 6.25 mg/kg/injection, schedule: Q01DX010 (ip), vehicle: saline
[3] = dose: 12.5 mg/kg/injection, schedule: Q01DX010 (ip), vehicle: saline
[4] = dose: 25.0 mg/kg/injection, schedule: Q01DX010 (ip), vehicle: saline
[5] = dose: 50.0 mg/kg/injection, schedule: Q01DX010 (ip), vehicle: saline
[6] = dose: 100.0 mg/kg/injection, schedule: Q01DX010 (ip), vehicle: saline
[7] = dose: 50.0 mg/kg/injection, schedule: Q01DX010 (sc), vehicle: steriod suspending solution

CCC1=C(c2cc(Cl)c3ccccc3c2OCC(=O)O)OC(CC)(C(=O)c2cc(Cl)c3ccccc3c2OCC(=O)O)CC1 (configuration not stated)
T/C (dose: 240.0 mg/kg/injection, schedule: Q01DX010 (ip), vehicle: steriod suspending solution): 74 % of control | T/C (dose: 480.0 mg/kg/injection, schedule: Q01DX010 (ip), vehicle: steriod suspending solution): 80 % of control

CCOC(=O)NP(=O)(N1CC1)N1CC1
T/C [1]: 64 % of control | T/C (dose: 10.0 mg/kg/injection, schedule: Q01DX010 (ip), vehicle: saline): 55 % of control

O=C(O)C(=O)O.[U]
T/C (dose: 1.56 mg/kg/injection, schedule: Q01DX010 (ip), vehicle: saline): 64 % of control | T/C (dose: 3.13 mg/kg/injection, schedule: Q01DX010 (ip), vehicle: saline): 45 % of control | T/C [2]: 28 % of control | T/C [3]: 30 % of control

CC(=O)OC1C=CC(=O)OC1C1OC1C (configuration not stated)
T/C (dose: 4.0 mg/kg/injection, schedule: Q01DX011 (ip), vehicle: saline): 53 % of control | T/C (dose: 6.0 mg/kg/injection, schedule: Q01DX011 (ip), vehicle: saline): 72 % of control | T/C (dose: 9.0 mg/kg/injection, schedule: Q01DX011 (ip), vehicle: saline): 62 % of control | T/C (dose: 13.0 mg/kg/injection, schedule: Q01DX011 (ip), vehicle: saline): 56 % of control

NCCCC(N)C(=O)NCCCCCCNCCCCCCNC(=O)C(N)CCCN (configuration not stated)
T/C [3]: 86 % of control | T/C [4]: 62 % of control | T/C [5]: 77 % of control | T/C [6]: 34 % of control

O=c1ccc2ccccc2o1
T/C (dose: 110.0 mg/kg/injection, schedule: Q01DX011 (ip), vehicle: carboxymethylcellulose (CMC)): 69 % of control | T/C (dose: 165.0 mg/kg/injection, schedule: Q01DX011 (ip), vehicle: carboxymethylcellulose (CMC)): 54 % of control

CS(=O)(=O)OCCCCOS(C)(=O)=O
T/C [2]: 103 % of control | T/C [5]: 58 % of control and 80 % of control | T/C [6]: 52 % of control

COc1ccc2cc3[n+](cc2c1OC)CCc1cc2c(cc1-3)OCO2
T/C (dose: 12.0 mg/kg/injection, schedule: Q01DX011 (ip), vehicle: saline): 75 % of control

CC(=O)[C@H]1CC[C@H]2[C@@H]3C[C@H](C)C4=CC(=O)CC[C@]4(C)[C@@]3(F)[C@@H](O)C[C@]12C
T/C [7]: 11 % of control | T/C (dose: 100.0 mg/kg/injection, schedule: Q01DX010 (sc), vehicle: steriod suspending solution): 4 % of control | T/C (dose: 200.0 mg/kg/injection, schedule: Q01DX010 (sc), vehicle: steriod suspending solution): 2 % of control | T/C (dose: 400.0 mg/kg/injection, schedule: Q01DX010 (sc), vehicle: steriod suspending solution): 2 % of control

Clc1ncnc2nc[nH]c12
T/C (dose: 7.5 mg/kg/injection, schedule: Q01DX010 (ip), vehicle: saline): 91 % of control | T/C (dose: 15.0 mg/kg/injection, schedule: Q01DX010 (ip), vehicle: saline): 84 % of control and 85 % of control | T/C (dose: 30.0 mg/kg/injection, schedule: Q01DX010 (ip), vehicle: saline): 102 % of control | T/C (dose: 120.0 mg/kg/injection, schedule: Q01DX010 (ip), vehicle: saline): 91 % of control

CN(C)c1ccc(/C=C/c2ccnc3ccccc23)cc1
T/C [1]: 59 % of control | T/C (dose: 20.0 mg/kg/injection, schedule: Q01DX010 (ip), vehicle: saline): 39 % of control and 46 % of control | T/C (dose: 40.0 mg/kg/injection, schedule: Q01DX010 (ip), vehicle: saline): 30 % of control and 38 % of control

N=C(N)c1ccc(Nc2ccc(C(=N)N)cc2)cc1
T/C (dose: 1.5 mg/kg/injection, schedule: Q01DX010 (ip), vehicle: saline): 85 % of control | T/C (dose: 3.0 mg/kg/injection, schedule: Q01DX010 (ip), vehicle: saline): 82 % of control | T/C (dose: 6.0 mg/kg/injection, schedule: Q01DX010 (ip), vehicle: saline): 119 % of control | T/C (dose: 12.0 mg/kg/injection, schedule: Q01DX010 (ip), vehicle: saline): 77 % of control

CS(=O)(=O)OCCC(=O)N1CCN(C(=O)CCOS(C)(=O)=O)CC1
T/C [3]: 77 % of control | T/C [4]: 71 % of control | T/C [5]: 7 % of control | T/C [6]: 4 % of control

Nc1ncnc2c1ccn2C1OC(CO)C(O)C1O (configuration not stated)
T/C (dose: 0.32 mg/kg/injection, schedule: Q01DX010 (ip), vehicle: saline): 97 % of control | T/C (dose: 0.63 mg/kg/injection, schedule: Q01DX010 (ip), vehicle: saline): 101 % of control | T/C (dose: 1.25 mg/kg/injection, schedule: Q01DX010 (ip), vehicle: saline): 84 % of control

C[C@]12CC[C@@H]3c4ccc(O)cc4CC[C@H]3[C@@H]1C[C@H](O)C2
T/C (dose: 6.25 mg/kg/injection, schedule: Q01DX010 (sc), vehicle: steriod suspending solution): 102 % of control | T/C (dose: 12.5 mg/kg/injection, schedule: Q01DX010 (sc), vehicle: steriod suspending solution): 95 % of control and 109 % of control | T/C [7]: 111 % of control and 112 % of control
